Consider one substance from patent publication US20080064034A1, “Multi-Cellular Test Systems” (FRAUNHOFER-GESELLSCHAFT ZUR FÖRDERUNG DER ANGEWAND, priority 2004, published 2008).

For this assay, the system named is organoid bodies. Description: Western blot of the liver protein α-fetoprotein in homogenates of organoid bodies incubated with HGF. It is filed as cell-based. The conditions noted are these: 40 ng/ml HGF. On the procedure:
In this example organoid bodies were exposed for a time period of 1 to 2 days to different micromolar concentrations of puromycin, an active substance that inhibits translation. Then, the size of the treated organoid bodies was compared with those of an untreated control (see comparative micrograph in FIG. 5A). In a second detection method the organoids were taken up in 10 ml lysis buffer containing 7.5 ml PBS, 2.5 ml NP-40 and 1 mM PEFA block, stored overnight in a refrigerator at 4° C. and then homogenized in minihomogenizers for Eppendorf tubes. The homogenate was centrifuged, the supernatant removed and resolved electrophoretically according to standard methods and the gel subjected to a Western immunoblot. […] The first four bands are produced by the different active amounts of puromycin, the last two show the amount of vigilin in the untreated organoids; the same amount of total protein was always applied per track.
The organoid bodies were incubated with 40 ng/ml HGF (hepatocyte growth factor) or without HFG for 7, 11 14 and 17 days. Then, the organoid bodies were homogenized as described in example 7 and subjected to a Western blot assay. The production of the liver protein α-fetoprotein was examined (FIG. 7).

Consider “HGF: hepatocyte growth factor, a differentiation factor for increased formation of cardiac and liver cells”, for which the “production of the liver protein α-fetoprotein” value is, setting by setting: (after 7 and 11 days of incubation) “distinct synthesis of the fetoprotein can be observed”; (longer exposure time (14 and 17 days)) “tends to inhibit the production again”.
